From ChEMBL document CHEMBL5463723, “Data for DCP probe BIBO3304” (2023)

Tests used:
[1] = molecular target: Prostaglandin G/H synthase 2 (Homo sapiens) (UniProt P35354); assay: Inhibitor of COX-2 in the Eurofins Cerep SafetyScreen44 (BI) by Fluorimetry (Cerep_4186); settings: Compound concentration 10.0 uM
[2] = molecular target: Small conductance calcium-activated potassium channel protein 1 (Rattus norvegicus) (UniProt P70606); assay: Activity against K+/SKCA in the Eurofins Panlabs screen (BI) by Radioactive Assay; settings: Compound concentration 10.0 uM
Small conductance calcium-activated potassium channel protein 1 (Rattus norvegicus), sequence (P70606 whole entry): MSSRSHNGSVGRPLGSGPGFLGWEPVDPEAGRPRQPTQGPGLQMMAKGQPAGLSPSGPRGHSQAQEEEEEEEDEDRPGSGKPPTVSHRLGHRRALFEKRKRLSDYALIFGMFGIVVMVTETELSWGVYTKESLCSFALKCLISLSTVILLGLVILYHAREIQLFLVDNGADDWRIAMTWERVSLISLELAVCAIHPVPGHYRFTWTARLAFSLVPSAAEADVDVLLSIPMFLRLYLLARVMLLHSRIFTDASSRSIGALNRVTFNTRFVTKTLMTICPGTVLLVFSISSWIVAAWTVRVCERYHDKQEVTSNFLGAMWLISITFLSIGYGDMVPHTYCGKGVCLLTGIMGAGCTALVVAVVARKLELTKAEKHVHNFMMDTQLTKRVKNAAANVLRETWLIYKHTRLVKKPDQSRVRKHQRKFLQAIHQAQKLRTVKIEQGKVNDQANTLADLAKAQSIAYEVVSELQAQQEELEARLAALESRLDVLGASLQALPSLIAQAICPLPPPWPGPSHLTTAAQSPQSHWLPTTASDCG

Prostaglandin G/H synthase 2 (Homo sapiens), sequence (P35354 whole entry): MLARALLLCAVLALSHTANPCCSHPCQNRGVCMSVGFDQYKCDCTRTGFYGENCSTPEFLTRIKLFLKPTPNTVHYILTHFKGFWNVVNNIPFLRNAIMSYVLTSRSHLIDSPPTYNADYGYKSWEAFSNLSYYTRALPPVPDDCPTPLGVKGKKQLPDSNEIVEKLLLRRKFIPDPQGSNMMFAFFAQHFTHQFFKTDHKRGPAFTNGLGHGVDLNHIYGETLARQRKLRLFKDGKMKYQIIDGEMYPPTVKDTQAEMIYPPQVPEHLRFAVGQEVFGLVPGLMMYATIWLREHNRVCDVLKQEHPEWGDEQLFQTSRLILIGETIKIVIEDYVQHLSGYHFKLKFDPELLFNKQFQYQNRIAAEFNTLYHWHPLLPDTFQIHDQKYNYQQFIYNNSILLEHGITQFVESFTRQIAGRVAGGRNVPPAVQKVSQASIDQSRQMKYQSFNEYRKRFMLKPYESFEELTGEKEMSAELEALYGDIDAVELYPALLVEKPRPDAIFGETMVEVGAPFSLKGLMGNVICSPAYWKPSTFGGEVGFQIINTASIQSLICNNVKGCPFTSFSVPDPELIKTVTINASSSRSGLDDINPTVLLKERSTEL

With `N=C(N)NCCC[C@@H](NC(=O)C(c1ccccc1)c1ccccc1)C(=O)NCc1ccc(CNC(N)=O)cc1` the residual activity [1] was 61% and the residual activity [2] was 119%.
